Data published in article PMC10631261 (Chemical Science, 2023).
Read-outs that look alike come from different tables or passages of the source.

Assays:
SLC2A1 = test: qRT-PCR of SLC2A1 expression in Hep3B cells; format: cell-based, human; conditions: for increase of SLC2A1 levels: qPCR, relative to DMSO
Protocol: (§1) 4. Methods for cell studies […]
(§2) in Minimum Essential Medium (MEM, GIBCO) with 10% fetal bovine serum (FBS, BI), 100 U/mL penicillin and 100 μg/mL streptomycin (1 × P/S, NCM Biotech). […]
(§3) and 100 μg/mL streptomycin (1 × P/S, NCM Biotech).
(§4) Quantitative PCR Analysis of Gene Expression […]
(§5) treated with vehicle (DMSO) or an inhibitor (at the concentrations indicated) for 12 h. Total RNA was isolated from cells and tissues using Trizol regents (Vazyme, China). 1 μg RNA was used for reverse transcription using HiScript III RT SuperMix for qPCR (Vazyme, China). cDNAs were amplified in a ChamQ Universal SYBR qPCR Master Mix (Vazyme, China). Quantitative PCR (qPCR) was performed on […]
(§6) a ABI QuantStudio 3 system.
(§7) The relative amount of mRNA was calculated after
(§8) 3T3-L1 derived adipocytes. […]

CA9 = test: qRT-PCR of CA9 expression in Hep3B cells; format: cell-based, human; conditions: for upregulation of CA9: qPCR, relative to DMSO
Protocol: as §1, §2, §3, §4, §5, §6, §7, §8

EGLN3 [1] = test: qRT-PCR of EGLN3 expression in Hep3B cells; format: cell-based, human; conditions: for increase of EGLN3 expression relative to DMSO: 50 μM, 12 h, qRT-PCR
Protocol: as §1, §2, §3, §4, §5, §6, §7, §8

EPO = test: qRT-PCR of EPO expression in Hep3B cells; format: cell-based, human; conditions: for upregulation of EPO: qPCR, relative to DMSO; for EPO levels in combination with FG-4592 compared with FG-4592 alone: with FG-4592, to a lesser extent than CA9
Protocol: as §1, §2, §3, §4, §5, §6, §7, §8

FIH [2] = biological target: T1, FIH (Homo sapiens, UniProt Q9NWT6); conditions: ESI Table S1; ref 19 (ESI); cited from earlier work
T1 construct: made in house
T1 sequence (Q9NWT6 whole entry): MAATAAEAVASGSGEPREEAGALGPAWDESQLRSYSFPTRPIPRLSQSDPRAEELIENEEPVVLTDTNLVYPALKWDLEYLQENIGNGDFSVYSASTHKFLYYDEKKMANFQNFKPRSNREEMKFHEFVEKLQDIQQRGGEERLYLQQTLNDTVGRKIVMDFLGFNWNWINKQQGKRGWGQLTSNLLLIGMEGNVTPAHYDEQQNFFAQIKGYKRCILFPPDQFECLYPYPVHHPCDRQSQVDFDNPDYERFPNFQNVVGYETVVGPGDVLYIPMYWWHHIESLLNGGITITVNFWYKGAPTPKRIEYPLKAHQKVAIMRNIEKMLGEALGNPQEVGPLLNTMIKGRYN

AspH [3] = biological target: T2, AspH (Homo sapiens, UniProt Q12797); conditions: cited from earlier work
T2 sequence (Q12797 315-758): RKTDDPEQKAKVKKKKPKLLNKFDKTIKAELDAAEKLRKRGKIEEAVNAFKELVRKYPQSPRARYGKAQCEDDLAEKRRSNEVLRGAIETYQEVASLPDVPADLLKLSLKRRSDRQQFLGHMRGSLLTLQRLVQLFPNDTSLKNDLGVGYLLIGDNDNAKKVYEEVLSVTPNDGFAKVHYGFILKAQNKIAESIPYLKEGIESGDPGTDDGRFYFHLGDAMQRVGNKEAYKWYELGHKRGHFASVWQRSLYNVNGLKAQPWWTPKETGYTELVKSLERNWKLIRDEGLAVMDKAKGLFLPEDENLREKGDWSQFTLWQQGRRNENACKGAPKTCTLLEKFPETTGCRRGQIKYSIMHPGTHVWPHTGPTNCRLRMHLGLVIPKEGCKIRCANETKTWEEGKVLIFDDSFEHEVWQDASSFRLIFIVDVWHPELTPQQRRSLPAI

KDM4A = KDM4A (Homo sapiens, UniProt O75164); test: biochemical; format: biochemical
KDM4A, sequence (O75164 1-359): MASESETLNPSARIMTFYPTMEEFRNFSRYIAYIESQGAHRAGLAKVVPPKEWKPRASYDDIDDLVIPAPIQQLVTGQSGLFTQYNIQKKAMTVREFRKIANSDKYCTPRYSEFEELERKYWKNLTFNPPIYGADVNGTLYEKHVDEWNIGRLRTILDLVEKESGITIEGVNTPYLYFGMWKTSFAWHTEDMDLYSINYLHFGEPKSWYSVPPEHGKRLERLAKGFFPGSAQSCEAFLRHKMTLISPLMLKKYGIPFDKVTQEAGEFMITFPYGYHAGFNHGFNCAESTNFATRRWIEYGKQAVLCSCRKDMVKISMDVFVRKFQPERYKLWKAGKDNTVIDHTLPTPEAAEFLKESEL
From the text: (§9) To investigate the potential of BNS for selective FIH inhibition, its selectivity was investigated with respect to other 2OG-dependent protein oxidising enzymes, that is PHD2, Jumonji-C domain-containing protein 5 (JMJD5), aspartate/asparagine-β-hydroxylase (AspH) and KDM4A, using reported SPE-MS inhibition assays.[58,61,69,70] In addition to PHD2 and KDM4A, we included AspH and JMJD5 in our selectivity studies, because AspH, like FIH, catalyses protein aspartate- and asparagine-residue hydroxylation (although in epidermal growth factor-like domains),[71,72] and because JMJD5 is structurally closely related to FIH.[73,74]
(§10) 3. Biochemical procedures
(§11) Protein production and purification
(§12) PAGE analysis) according to established procedures.
(§13) FIH, PHD2, AspH, JMJD5 and KDM4A inhibition assays
(§14) The in vitro FIH,1, 2 PHD2,1 AspH,38 JMJD536 and KDM4A39 inhibition assays were performed as […]
(§15) KDM4A). Synthetic peptide substrates were used: HIF-1α C-terminal transactivation domain fragment […]
(§16) H3Lys9 bearing three methyl groups at the N ϵ position, H3Lys4 substituted by an Ala and H3Lys14 substituted by an Ile residue) for KDM4A.39 Peptides were prepared as C-terminal amides by GL Biochem (Shanghai) Ltd. Peptide hydroxylation in the case of FIH, PHD2, AspH and JMJD5 (+16 Da mass shift) or peptide demethylation in the case of KDM4A ( -14 Da mass shift) was monitored by SPE-MS. […]

PHD2 = PHD2 (Homo sapiens, UniProt Q9GZT9); test: biochemical
PHD2, sequence (Q9GZT9 181-426): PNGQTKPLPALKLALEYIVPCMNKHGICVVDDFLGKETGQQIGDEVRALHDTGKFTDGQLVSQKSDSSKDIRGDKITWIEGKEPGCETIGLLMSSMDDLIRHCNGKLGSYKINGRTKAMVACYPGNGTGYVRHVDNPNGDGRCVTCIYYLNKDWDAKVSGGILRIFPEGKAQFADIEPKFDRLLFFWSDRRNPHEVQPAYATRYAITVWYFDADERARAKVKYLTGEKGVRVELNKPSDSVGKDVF
Protocol: as §10, §11, §12, §13, §14, §15, §16

JMJD5 [4] = biological target: T3, JMJD5 (Homo sapiens, UniProt Q8N371); set-up: method as in PMID 37292060; conditions: cited from earlier work
T3 sequence (Q8N371 whole entry): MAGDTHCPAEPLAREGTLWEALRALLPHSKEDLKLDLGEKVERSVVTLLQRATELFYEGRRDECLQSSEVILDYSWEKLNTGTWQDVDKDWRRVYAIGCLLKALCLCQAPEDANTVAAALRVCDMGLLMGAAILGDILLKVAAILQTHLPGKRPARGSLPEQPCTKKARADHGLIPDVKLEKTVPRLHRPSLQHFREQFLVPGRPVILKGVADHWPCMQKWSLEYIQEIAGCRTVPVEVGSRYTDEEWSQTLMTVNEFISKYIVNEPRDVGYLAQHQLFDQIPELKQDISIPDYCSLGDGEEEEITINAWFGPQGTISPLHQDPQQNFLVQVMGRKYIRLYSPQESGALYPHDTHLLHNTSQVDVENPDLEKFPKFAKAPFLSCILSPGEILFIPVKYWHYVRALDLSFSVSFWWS

AspH [5] = biological target: T2, AspH; test: biochemical
From the text: as §9, §10, §11, §12, §13, §14, §15, §16

JMJD5 [6] = biological target: T3, JMJD5; test: biochemical; conditions: read-out: JMJD5 IC50
From the text: as §9, §10, §11, §12, §13, §14, §15, §16

EGLN3 [7] = test: qRT-PCR of EGLN3 expression in 786-O cells; format: cell-based; conditions: VHL-deficient 786-O cells
Protocol: as §1, §2, §3, §4, §5, §6, §7, §8

FIH [8] = biological target: T1, FIH; test: SPE-MS FIH inhibition assay; format: biochemical; conditions: for FIH inhibition potency relative to 2,4-PDCA (more potent): IC50 comparison with 2,4-PDCA
Protocol: as §11, §12, §13, §14, §15, §16

[9] = test system: 3T3-L1 derived adipocytes; test: Cellular triglyceride (TG) colorimetric assay; format: cell-based
Protocol: as §1, §2
(§17) and 100 μg/mL streptomycin (1 × P/S, NCM Biotech). […]
(§18) 3T3-L1 derived adipocytes.
(§19) 10% newborn calf serum (NCS, GIBCO), 100 U/mL penicillin and 100 μg/mL streptomycin (1 × P/S, NCM […]
(§20) The 3T3-L1 cells were strictly subcultured before they
Subcultures of 3T3 -L1 cells were routinely cultured in DMEM medium containing 10% NCS for two days, and then the cells were cultured in DMEM containing 10% FBS, 0.5 mM 3 -isobutyl-1-methylxanthine, 1 μM dexamethasone, 10 μg/mL insulin and 2 μM rosiglitazone for another two days. Subsequently, the cells were cultured in DMEM containing 10% FBS and 10 μg/mL insulin for two days. After these procedures, the cells were maintained in […]
To investigate the effect of inhibitors on adipocytes, 3T3-L1-derived adipocytes were treated with vehicle (DMSO) or with an inhibitor (at the concentrations indicated) for 48 h. […]
Cellular TG level assay for 3T3 -L1 derived adipocytes.
The 3T3-L1-derived adipocytes were washed with PBS, then the cells were lysed. And then, the cellular TG level was determined by using a cellular triglyceride assay kit (Applygen, China).
Oil Red O staining for 3T3-L1 derived adipocytes.

[10] = test system: 3T3-L1 derived adipocytes; format: cell-based
Protocol: as §1, §2, §17, §18, §19, §20
Subcultures of 3T3 -L1 cells were routinely cultured in DMEM medium containing 10% NCS for two days, and then the cells were cultured in DMEM containing 10% FBS, 0.5 mM 3 -isobutyl-1-methylxanthine, 1 μM dexamethasone, 10 μg/mL insulin and 2 μM rosiglitazone for another two days. Subsequently, the cells were cultured in DMEM containing 10% FBS and 10 μg/mL insulin for two days. After these procedures, the cells were maintained in DMEM containing 10% FBS. T he last induction procedure was repeated 2 -3 times until lipid droplets […]
Viability Assay for 3T3-L1 derived adipocytes.
To investigate the effect of inhibitors on adipocytes, 3T3-L1-derived adipocytes were treated with vehicle (DMSO) or with an inhibitor (at the concentrations indicated) for 48 h. Cell viability was […]
Microplate Reader (Tecan) at OD 450 nm. […]

Row | Compound | increase of SLC2A1 levels (SLC2A1) [fold] | upregulation of CA9 (CA9) | upregulation of EPO (EPO) | IC50 (KDM4A) [µM] | IC50 (PHD2) [µM] | increase of EGLN3 expression relative to DMSO (EGLN3 [1]) [fold] | EGLN3 upregulation on co-administration with FG-4592 relative to compound alone (EGLN3 [1]) | IC50 (AspH [5]) [µM] | IC50 (JMJD5 [6]) [µM] | effect on EGLN3 gene expression (EGLN3 [7]) | IC50 (FIH [8]) [µM] | FIH inhibition potency relative to 2,4-PDCA (more potent) (FIH [8]) [fold] | selectivity for FIH inhibition over AspH inhibition (FIH [8]; as judged by IC50 values) [fold] | selectivity for FIH inhibition over KDM4A inhibition (FIH [8]; as judged by IC50 values) [fold] | further results
1 | Cc1nc(C(=O)NCC(=O)O)c(O)c2ccc(Oc3ccccc3)cc12 [FG-4592] | ~4 | ~8 fold | ~7 fold |  |  |  |  |  |  |  |  |  |  |  | effect on Hep3B EGLN3 levels (EGLN3 [1]; compound alone): no effect; IC50 (FIH [2]): > 100 µM
2 | O=C(O)C(=O)N[C@H](Cc1ccccc1)C(=O)O [NOFD, N-oxalyl-D-phenylalanine, reference compound] |  |  |  | 14.1 | > 100 |  |  |  |  |  |  |  |  |  | IC50 (AspH [3]): 15.5 µM; IC50 (JMJD5 [4]): > 100 µM
3 | O=C(O)Cc1csc(=NC(=O)C2CCN(S(=O)(=O)c3ccc(-c4ccccc4)cc3)C2)n1O (centres unmarked) [compound 38] |  |  |  | > 100 | 3.1 ± 0.1 | ~2.5 | greater increase | 30.2 ± 10.9 | 31.9 ± 2 | upregulation of EGLN3 | 0.26 ± 0.01 | ~10 | > 100 | > 300 | melting point: 180 to 183 °C
4 | O=C(O)CNC(=O)C(=O)O [NOG, N-oxalylglycine, reference compound] |  |  |  |  |  |  |  |  |  |  | 0.36 ± 0.03 |  |  |  | IC50 (AspH [3]; SPE-MS, ref [58]): 1.1 ± 0.3 µM; IC50 (KDM4A; 0.15 μM KDM4A, 10.0 μM 2OG, 10.0 μM H3 1–15 K9me3, SPE-MS): 22.1 ± 1.1 µM
5 | COC(=O)C(=O)N[C@H](Cc1ccccc1)C(=O)OC [DM-NOFD, dimethyl N-oxalyl-D-phenylalanine] | ~1.3 | no response | no response |  |  | ~1.8 | no additional effect |  |  | upregulation of EGLN3 |  |  |  |  | SLC2A1 gene expression in combination with FG-4592 (SLC2A1): no synergistic effect; CA9 levels in combination with FG-4592 compared with FG-4592 alone (CA9): increase; EPO levels in combination with FG-4592 compared with FG-4592 alone (EPO): increase; effect on TG levels ([9]; 100 μM): no effect
6 | O=C(O)Cc1csc(=NC(=O)C2CCN(S(=O)(=O)Cc3ccccc3)C2)n1O (centres unmarked) [compound 42] | ~1.5 | no response | no response | > 100 | 6.9 ± 0.5 | ~2.5 | greater increase | 43.1 ± 18.7 | 7.2 ± 2.8 | upregulation of EGLN3 | 0.28 ± 0.02 | ~10 | > 100 | > 300 | SLC2A1 gene expression in combination with FG-4592 (SLC2A1): no synergistic effect; CA9 levels in combination with FG-4592 compared with FG-4592 alone (CA9): increase; EPO levels in combination with FG-4592 compared with FG-4592 alone (EPO): increase; reduction in cellular TG levels ([9]; 50 μM): ~30%; cytotoxicity (cell viability) [10]: Neither 42 and 42b exhibited apparent cytotoxicity; selectivity for FIH inhibition over JMJD5 inhibition (FIH [8]; as judged by IC50 values): ~25 fold; selectivity for FIH inhibition over PHD2 inhibition (FIH [8]; as judged by IC50 values): ~25 fold
7 | CC[C@H]1[C@@H](O)[C@@H]2[C@H](CC[C@]3(C)[C@@H]([C@H](C)CCC(=O)O)CC[C@@H]23)[C@@]2(C)CC[C@@H](O)C[C@@H]12 [obeticholic acid] |  |  |  |  |  |  |  |  |  |  |  |  |  |  | reduction in cellular TG levels ([9]; 20 μM): 25%
8 | O=C(O)Cc1csc(=NC(=O)C2CCN(S(=O)(=O)c3ccc(Oc4ccccc4)cc3)C2)n1O (centres unmarked) [compound 39] |  |  |  | > 100 | 3.1 ± 0.2 | ~2.5 | no additional effect | 29.8 ± 4.3 | 8.6 ± 0.2 | upregulation of EGLN3 | 0.29 ± 0.03 | ~10 | > 100 | > 300 | melting point: 179 to 183 °C
